Experiments:
Type in all cases: cell-based
[1] = tested on: oxidative MTHFD2 flux in SKOV3 cells; test: Oxidative MTHFD2 flux by 4-[2H]-glucose tracing; settings: SKOV3, increasing rotenone doses (0-1,000 nM), 8 h
Description: (§1) FIG. 4 Dynamic flux analysis with parallel tracers to quantify oxidative MTHFD2 flux. a, Oxidative MTHFD2 flux and percentage decrease in OCRfollowing MTHFD2 inhibition in SKOV3 cells treated with rotenone (0, 31, 62, 125, 250, 500 or 1,000 nM) and MTHFD2 inhibitor (0 or 60 μM). Oxidative MTHFD2 flux is proportional to [2H1]-serine/[2H1]-NADH enrichment in cells cultured with 4-[2H]-glucose for 8 h. Percentage decrease in OCR is estimated in SKOV3 cells treated with 60 μM MTHFD2i compared with 0 μM MTHFD2i. Oxidative flux data are combined from two independent experiments (n=4), with mean±s.d. estimated using error propagation. […] (n=6) and analysed using two-tailed Welch's t-test. e, Ratio of [2H2]-serine/[2H]-NADH enrichment in SKOV3 and OVCAR8 cells at 2 h after combined tracer introduction of 4-[2H]-glucose and [2H]-formate, representing the normalized contribution of [2H]-NADH to [2H2]-serine via oxidative MTHFD2 flux. Data combined from two independent experiments (n=6), with mean±s.d. estimated using error propagation and analysed by two-tailed Welch's t-test. f, [2H2]-serine enrichment in SKOV3 cells expressing shScramble or shUQCR11 at 2 h after combined tracer introduction of 4-[2H]-glucose and [2H]-formate. […] (n=5) and analysed using one-tailed non-parametric Mann-Whitney test. […]

[2] = tested on: reductive MTHFD2 flux in SKOV3 cells; test: Reductive MTHFD2 flux by 2,3,3-[2H]-serine tracing; settings: SKOV3, increasing rotenone doses, 8 h
Description: as §1

SKOV3 cells = test: Oxygen consumption rate (OCR) measurement; settings: SKOV3, increasing rotenone concentrations
Description: FIG. 4 Dynamic flux analysis with parallel tracers to quantify oxidative MTHFD2 flux. a, Oxidative MTHFD2 flux and percentage decrease in OCRfollowing MTHFD2 inhibition in SKOV3 cells treated with rotenone (0, 31, 62, 125, 250, 500 or 1,000 nM) and MTHFD2 inhibitor (0 or 60 μM). Oxidative MTHFD2 flux is proportional to [2H1]-serine/[2H1]-NADH enrichment in cells cultured with 4-[2H]-glucose for 8 h. Percentage decrease in OCR is estimated in SKOV3 cells treated with 60 μM MTHFD2i compared with 0 μM MTHFD2i. Oxidative flux data are combined from two independent experiments (n=4), with mean±s.d. estimated using error propagation. OCR data are representative of two independent experiments and presented as mean±s.d. estimated using error propagation (n=5). b, Reductive MTHFD2 flux and basal OCR in SKOV3 cells treated with rotenone (0, 31, 62, 125, 250 or 1,000 nM) and MTHFD2 inhibitor (0 or 60 μM). Reductive MTHFD2 flux is proportional to [2H1]-NADH in cells cultured with 2,3,3-[2H]-serine for 8 h. OCR data are representative of two independent experiments and presented as mean±s.e.m. (n=5). c, Schematic of combination tracer experiment with 4-[2H]-glucose and [2H]-formate to track oxidative MTHFD2 flux. […] (n=6) and analysed using two-tailed Welch's t-test. e, Ratio of [2H2]-serine/[2H]-NADH enrichment in SKOV3 and OVCAR8 cells at 2 h after combined tracer introduction of 4-[2H]-glucose and [2H]-formate, representing the normalized contribution of [2H]-NADH to [2H2]-serine via oxidative MTHFD2 flux. Data combined from two independent experiments (n=6), with mean±s.d. estimated using error propagation and analysed by two-tailed Welch's t-test. f, [2H2]-serine enrichment in SKOV3 cells expressing shScramble or shUQCR11 at 2 h after combined tracer introduction of 4-[2H]-glucose and [2H]-formate. […] (n=5) and analysed using one-tailed non-parametric Mann-Whitney test.
OCR measurement. […] Live OCR was measured for up to 16 h after attaching the lid.
Mito stress test with the Seahorse analyser. Mitochondrial OCR was measured using a Seahorse XFe96 analyser (Agilent Technologies). […]

[3] = tested on: parental ovarian cancer lines and isogenic SKOV3 lines; test: Viability with MTHFD2 inhibitor and uridine supplementation; settings: uridine 50 μM supplementation
Description: FIG. 15 Investigating metabolic consequence of Complex III impairment and activity of paralogous pathways other than oxidative MTHFD2. (a) Effect of MTHFD2 inhibitor ([…]) and uridine (50 μM) supplementation on viability of parental ovarian cancer lines that are UQCR11—intact (SKOV3) or UQCR11-null (HeyA8, OVCAR8, CAOV3). Data are representative of two independent experiments and presented as mean±s.d. (n=6). Data analyzed with one-way ANOVA with Tukey's correction for multiple comparisons. (b) Effect of MTHFD2 inhibitor and uridine supplementation on viability of isogenic SKOV3 lines expressing shScramble or shUQCR11. […] Data analyzed with one-way ANOVA with Tukey's correction for multiple comparisons. […] (n=6) and analyzed using two-tailed Student's t-test. (d) mRNA expression of NNT, IDH2, IDH3A measured via qRT-PCR after knocking down with shNNT, shIDH2, and shIDH3A, relative to scramble shRNA (shScr), verifying knockdown efficiency in SKOV3 and OVCAR8 cell-lines. […] Data analyzed using unpaired two-tailed Student's t-test. […] Data are analyzed using ordinary one-way ANOVA with multiple comparisons. […] Loss of viability calculated by comparing respective viability in vehicle control-treated cells to MTHFD2 inhibitor-treated cells. […] (n=6) and analyzed using ordinary one-way ANOVA with Dunnett's correction for multiple comparisons. Error bars are calculated using propagation of error principles.

SMILES	oxidative MTHFD2 flux [1]	reductive MTHFD2 flux [2]	basal OCR (SKOV3 cells)	rescue of cells from MTHFD2 inhibition [3]
C=C(C)[C@H]1Cc2c(ccc3c2O[C@@H]2COc4cc(OC)c(OC)cc4[C@@H]2C3=O)O1 [rotenone]	first increased with increasing, yet low, rotenone doses but returned to original levels as doses were further increased	modest increase at low rotenone doses, which became most pronounced at the highest doses	monotonic decrease	–
O=c1ccn([C@@H]2O[C@H](CO)[C@@H](O)[C@H]2O)c(=O)[nH]1 [uridine]	–	–	–	unable to rescue
